Assay results published in patent US11744815B1, “Pharmaceutical composition of dimethylguanidino valeric acid and plant flavonoids for treating chronic inflammatory diseases and cancer” (priority 2022, dated 2023).
“Also recorded” adds a separate entry of the source. One block for each molecule: values may come before it.

Tests used:
AGXT2^−/− T cells = assay: ROS induction in AGXT2-KO T cells; type: cell-based, mice; settings: ADMA 10 μM, SDMA 10 μM, DMGV (504)
Method: DMGV is converted from asymmetric dimethylarginine (ADMA) or symmetric dimethylarginine (SDMA) by alanine-glyoxylate aminotransferase 2 (AGXT2) in the mitochondria whereas ADMA or SDMA is metabolized to L-citrulline in the cytosol as shown in FIG. 6A. In order to investigate the role of DMGV in T cells, we generated AGXT2-KO (AGXT2^−/−) mice using Crispr/Cas9 technology according to FIG. 6B. Neither ADMA (10 μM) or SDMA (10 μM) induce ROS in AGXT2^−/− T cells but DMGV (504) still does, an evidence that SDMA or ADMA induces ROS only when they are converted to DMGV (FIG. 6C).

Jurkat T cells = assay: Mitochondrial ROS by flow cytometry using CellROX Green, Jurkat T cells; type: cell-based, human; settings: for induction of ROS: kaempferol 5 μM, quercetin 25 μM, daidzein 5 μM
Method: (§1) The invention further investigated how DMGV suppresses cell proliferation and survival.
In order to locate the cellular compartment of ROS generated by DMGV, Jurkat T cells were incubated with the mitochondria-specific ROS inhibitor MitoQ (100 nM) for 15 min before stimulation with DMGV (504) for ROS measurement.
(§2) As certain flavonoids are known to active MCU, we tested whether DMGV and the flavonoids activate MCU in the same manner. Jurkat T cells were treated with the flavonoids [kaempferol (5 μM), quercetin (25 μM), or daidzein (5 μM)]. […] The molecular docking simulator SwissDock predicted that the flavonoids and DMGV bind to MCU in a same pocket.

human T cells [1] = assay: Human T cell survival by flow cytometry after 4 days; type: cell-based
[2] = system: AGXT2^+/+ and AGXT2^−/− T cells; assay: Survival of AGXT2^+/+ and AGXT2^−/− T cells, 4 days, flow cytometry; type: cell-based, mice
Method: To investigate the role of AGXT2 and DMGV in T cell survival, AGXT2^+/+ and AGXT2^−/− T cells were stimulated with the indicated compounds (ADMA: 10 μM, SDMA: 10 μM, DMGV: 504, MitoQ: 100 nM) for 4 days and the survival rate was measured by flow cytometry.

activated T cells [3] = assay: T cell survival by flow cytometry after 3 days; type: cell-based; settings: stimulated with indicated amount of DMGV
Method: (§3) In example one, pharmaceutical composition was screened and discovered natural small molecules that inhibit T cell survival and proliferation to use as therapeutics for chronic inflammatory diseases and cancers as taught in FIG. 1, T cells were stimulated with or without the indicated amount of DMGV and survival was measured by flow cytometry after 3 days. […] Solid tumor cancer cell lines were incubated with different doses of DMGV or 5-FU (5-fluorouracil), and cells survival was measured by CCK-8 after 2 days.

[4] = system: Jurkat (Human T lymphocytic leukemia cell lines); assay: Survival of hematological cancer cell line Jurkat; type: cell-based
[5] = system: THP-1 (Acute monocytic leukemia cell lines); assay: Survival of hematological cancer cell line THP-1; type: cell-based
[6] = system: HL-60 (Acute myeloid leukemia M3 cell lines); assay: Survival of hematological cancer cell line HL-60; type: cell-based
[7] = system: K-562 (Human chronic myeloid leukemia cell lines); assay: Survival of hematological cancer cell line K-562; type: cell-based
[8] = system: HCT-8 (Human colorectal cancer cell lines); type: cell-based
Method: as §3

[9] = system: HCA-7 (colorectal cancer cell lines); assay: Solid tumor cell survival by CCK-8 after 2 days, HCA-7; type: cell-based
Method: as §3

[10] = system: PC-3 (Human prostate cancer cell lines); assay: Solid tumor cell survival by CCK-8 after 2 days, PC-3; type: cell-based
Method: as §3

Jurkat cells = assay: T cell leukemia model, Jurkat cells injected into tail vein of mice; type: in vivo, NSG/SCID mice; settings: 700 μg/mouse i.p.
Method: The next experiment tested whether DMGV can eliminate cancer cells in vivo. […] After 2 weeks of the injection, the level of Jurkat cells in the peripheral blood reached around 60% of the total leukocytes. The model mice were injected with either PBS (Control) or DMGV (700 μg/mouse intraperitoneal injection, i.p.) for 2 weeks as shown in FIG. 3B.

mouse T cells [11] = assay: Mitochondrial ROS by flow cytometry using CellROX Green, mouse T cells; type: cell-based
Source text: as §1

human T cells [12] = assay: Mitochondrial ROS by flow cytometry using CellROX Green, human T cells; type: cell-based
Source text: as §1

activated T cells [13] = assay: Energy metabolism by Seahorse assay; type: cell-based, mouse
Source text: The invention tested if DMGV relied on glycolysis to suppress cell survival.

mouse T cells [14] = assay: Mouse T cell survival in RPMI with or without glucose, 4 days; type: cell-based
Method: In order to test the effects of glycolysis on the DMGV function to inhibit survival, mouse T cells were activated with or without DMGV in RPMI with or without glucose for 4 days and the survival rates were measured by flow cytometry. […] Oxidative phosphorylation uses pyruvate, an end product of glycolysis, and thus a diminished glycolysis can decrease oxidative phosphorylation.

calcium flux = assay: Calcium flux by flow cytometry using Fluo-8; type: cell-based
Method: (§4) As a sudden influx of calcium to the mitochondria can cause ROS induction, we tested whether DMGV regulates calcium flux to induce ROS. Calcium flux was measured by flow cytometry using the calcium indicator Fluo-8. While stimulation of T cell receptor (TCR) by a stimulatory antibody triggered calcium release from ER (efflux), which in turn induced calcium influx from the outside to cytosol (influx). […] Because of the close proximity between ER and mitochondria, calcium efflux from ER leads to calcium import to the mitochondria, which can be mediated by MCU.

MCU = molecular target: T1, MCU (Homo sapiens, UniProt Q8NE86); assay: Mitochondrial calcium influx in Jurkat cells expressing Mito-GEM-GECO; type: cell-based; settings: for induction of mitochondrial calcium: Jurkat T cells, kaempferol 5 μM, quercetin 25 μM, daidzein 5 μM
T1 construct: endogenous in cells; host or cells: Jurkat T cells
T1 sequence (Q8NE86 51-351): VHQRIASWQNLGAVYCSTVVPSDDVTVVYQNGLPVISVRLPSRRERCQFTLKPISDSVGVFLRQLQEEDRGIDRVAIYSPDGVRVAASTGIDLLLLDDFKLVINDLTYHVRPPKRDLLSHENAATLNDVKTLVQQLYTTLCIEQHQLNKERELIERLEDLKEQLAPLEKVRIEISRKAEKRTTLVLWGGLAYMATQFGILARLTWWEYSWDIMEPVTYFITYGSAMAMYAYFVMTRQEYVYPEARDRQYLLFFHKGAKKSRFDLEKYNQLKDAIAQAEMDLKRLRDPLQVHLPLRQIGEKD
T1 sequence (Q9H4I9 48-107 partner limits assumed): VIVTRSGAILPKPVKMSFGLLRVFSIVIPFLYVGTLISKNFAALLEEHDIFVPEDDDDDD
Method: as §4, §2

[15] = system: MCU mutants deleted of Ile127, V135, or Ile127 and V135; assay: MCU deletion mutants transfected to MCU KO cells; type: cell-based; settings: for dependence of MCU activation on Ile127: MCU mutant deleted of Ile127 in MCU KO cells; for dependence of MCU activation on V135: MCU mutant deleted of V135 in MCU KO cells
Source text: To test whether Ile127 and V135 are important for these compounds to activate MCU, we generated 3 different MCU mutants deleted of Ile127, V135, or Ile127 and V135. These MCU mutants were transfected to MCU KO cells and stimulated with kaempferol, daidzein, quercetin, or DMGV.

chronic colitis = assay: Chronic colitis by adoptive transfer of naïve CD4+ T cells; type: in vivo, Rag2^−/− mice
Source text: The present invention tested if DMGV suppresses chronic T cell-mediated inflammation in two mouse models. In the first model, adoptive transfer of naïve CD4^+ T cells from syngeneic mice into immunodeficient (Rag2^−/−) mice induces chronic colitis similar to inflammatory bowel diseases (IBD) in humans, due to differentiation of T cells into pathogenic Th17 cells in the absence of regulatory T cells (Tregs). After adoptively transferring naïve CD4^+ T cells from syngeneic mice to recombinase activating gene-2-deficient (Rag2^−/−) mice to induce colitis, the mice showing the disease symptom in the form of loose stool around 4-6 weeks were randomly divided into two groups. One group (n=9) was treated with DMGV (i.p. 750 μg/mouse, twice a week) and the control group (n=11) with PBS up to 40 days and mortality was observed.

autoimmune arthritis = assay: Chronic autoimmune arthritis in SKG mice accelerated by laminarian; type: in vivo; settings: i.p. 750 μg/mouse, twice a week, up to 50 days, start at score 8
Source text: In the second model, SKG mice harbor a point mutation in ZAP-70^W163C and Develop Chronic autoimmune arthritis similar to human RA due to aberrant T cell activation. The disease can be accelerated by injection of […].

T cell = assay: ROS induction and T cell proliferation with selective iNOS inhibitor; type: cell-based
[16] = MitoQ 100 nM with DMGV 504, 4 days

Molecule: CN=C(NC)NCCC[C@H](N)C(=O)O [SDMA, symmetric dimethylarginine]
ROS induction in AGXT2^−/− T cells (AGXT2^−/− T cells): do not induce ROS

Molecule: CN(C)C(N)=NCCC[C@H](N)C(=O)O [ADMA, asymmetric dimethylarginine]
ROS induction in AGXT2^−/− T cells (AGXT2^−/− T cells): do not induce ROS

Molecule: COC1=C(OC)C(=O)C(CCCCCCCCCC[P+](c2ccccc2)(c2ccccc2)c2ccccc2)=C(C)C1=O [MitoQ, reference compound]
effect on DMGV-induced ROS production (Jurkat T cells; MitoQ (100 nM) 15 min before stimulation with DMGV (504)): completely inhibited ROS production | effect on DMGV-induced T cell death (human T cells [1]; human T cells, DMGV with or without MitoQ, 4 days): rescued T cells from DMGV-induced cell death | effect on DMGV-induced inhibition of AGXT2^+/+ T cells [2, 16]: rescued AGXT2^+/+ T cells from DMGV-induced inhibition | effect on DMGV-induced rescue of AGXT2^−/− T cells [2, 16]: inhibited DMGV-induced rescue of AGXT2^−/− T cells

Molecule: dimethylguanidino valeric acid [DMGV]
survival and proliferation of activated T cells (activated T cells [3]): inhibit the survival and proliferation of activated T cells | survival of Jurkat cells [4]: suppresses survival | survival of THP-1 cells [5]: suppresses survival | survival of HL-60 cells [6]: suppresses survival | survival of K-562 cells [7]: suppresses survival | inhibition of HCT-8 proliferation compared with 5-FU [8]: inhibited proliferation of HCT-8 better than a known chemotherapeutic drug, 5-FU | proliferation of HCT-8 ([8]; CCK-8 after 2 days): suppresses proliferation | suppression of HCT-8 proliferation, 3D versus 2D culture ([8]; Matrigel (3D) vs 2-dimensional culture): much more effective in suppressing proliferation of HCT-8 cultured in Matrigel™ (3D) than 2D | proliferation of HCA-7 [9]: suppresses proliferation | proliferation of PC-3 [10]: suppresses proliferation | Jurkat cells in the peripheral blood (Jurkat cells; after 2 weeks of treatment): completely eliminated Jurkat cells | cancer-induced death (Jurkat cells; after 4 weeks of treatment): prevented the cancer-induced death | induction of mitochondrial ROS (mouse T cells [11]): rapidly induces mitochondrial ROS | induction of mitochondrial ROS (human T cells [12]): rapidly induces mitochondrial ROS | induction of mitochondrial ROS (Jurkat T cells; Jurkat T cells): rapidly induces mitochondrial ROS | ROS induction in glucose-free medium (Jurkat T cells; Jurkat T cells in RPMI without glucose for 24 h): does not induce ROS | dependence of DMGV-induced ROS on MCU (Jurkat T cells; Ru360 or MCU KO): dependent on MCU | glycolysis (activated T cells [13]): significantly inhibited | oxidative phosphorylation (activated T cells [13]): significantly inhibited | T cell survival in glucose-free culture (mouse T cells [14]): no longer affected T cell survival | ROS induction in AGXT2^−/− T cells (AGXT2^−/− T cells): still does | survival of AGXT2^+/+ T cells ([2]; DMGV: 504, 4 days): inhibited survival of AGXT2^+/+ T cells | survival of AGXT2^−/− T cells ([2]; DMGV: 504, 4 days): rescued AGXT2^−/− T cells | calcium efflux (release from ER) (calcium flux; Fluo-8): induced efflux | calcium influx from the outside to cytosol (calcium flux; Fluo-8): not influx | calcium influx to the mitochondria (MCU; Jurkat cells, Mito-GEM-GECO): induces calcium influx to the mitochondria | dependence of MCU activation on Ile127 [15]: completely; also recorded: dependent mostly on Ile127 | dependence of MCU activation on V135 [15]: independent on Va1135 | survival (mortality) of colitis mice (chronic colitis; i.p. 750 μg/mouse, twice a week, up to 40 days, n=9): all except for one mouse survived | normalized IL-17A+ T cell number in colonic tissue (chronic colitis; survived mice, compared to the control group): significantly lower | arthritis score (autoimmune arthritis): significantly decreased the arthritis score

induction of mitochondrial calcium (MCU): induced mitochondrial calcium
Molecule: O=c1c(-c2ccc(O)cc2)coc2cc(O)ccc12 [daidzein, 7-hydroxy-3-(4-hydroxyphenyl)-4H-chromen-4-one]
induction of ROS (Jurkat T cells; Jurkat T cells): induced mitochondrial calcium as wells ROS | dependence of MCU activation on Ile127 [15]: independent on it | dependence of MCU activation on V135 [15]: mostly dependent on V135

induction of mitochondrial calcium (MCU): induced mitochondrial calcium
Molecule: O=c1c(O)c(-c2ccc(O)cc2)oc2cc(O)cc(O)c12 [kaempferol, 3,5,7-Trihydroxy-2-(4-hydroxyphenyl)-4H-chromen-4-one]
induction of ROS (Jurkat T cells; Jurkat T cells): induced mitochondrial calcium as wells ROS | survival of activated human T cells (human T cells [1]; activated human T cells): suppressed survival of activated human T cells via mitochondrial ROS | dependence of MCU activation on Ile127 [15]: independent on it | dependence of MCU activation on V135 [15]: totally dependent on it; also recorded: mostly dependent on V135

Molecule: CC(=N)NCCCC[C@H](N)C(=O)O [N6-(1-iminoethyl)-L-lysine]
ROS induction (T cell): does not induce ROS | T cell proliferation (T cell): does not induce ROS or inhibit T cell proliferation

effect on DMGV-induced calcium influx to the mitochondria (MCU; Ru360 (104)): completely inhibited
Molecule: Ru360 [reference compound]
effect on TCR-induced calcium flux (calcium flux; Ru360): not affected
